Source: PubChem BioAssay AID1996
In brackets after ≈: the same amount, converted by molar mass.

Settings: buffer; pH 7.4; 200.0 µM

| solubility kinetic [µg/mL] | Structure (SMILES) |
| --- | --- |
| > 38.9 | O=S(=O)(NCC1CCCO1)c1ccccc1F (centres undefined) |
| 0.9 (≈ 2.81 µM) | COc1ccc(Cl)cc1C(=O)Nc1ccc2c(c1)OCCO2 |
| > 43.4 | O=c1c2ccccc2[nH]c(=S)n1CCN1CCCCC1 |
| 48.7 (≈ 136 µM) | O=C(C1CCCN(S(=O)(=O)c2ccc(Cl)cc2)C1)N1CCCC1 (centres undefined) |
| 39.8 (≈ 135 µM) | O=C(CSc1ncccc1C(=O)O)NC1CCCCC1 |
| > 32.3 | Cc1cc(C)nc(Nc2ccc(O)cc2)n1 |
| 10.9 (≈ 35.2 µM) | COc1cccc(OCCn2cc(C(C)=O)c3ccccc32)c1 |
| > 48.1 | CC(C)C(=O)NCC(c1ccc2c(c1)OCO2)N1CCOCC1 (centres undefined) |
| 27.2 (≈ 89.1 µM) | CCc1noc(C)c1C(=O)Nc1nc2ccc(F)cc2s1 |
| > 45.7 | CC(=O)Nc1ccccc1OCC(=O)NC1CCCCC1C (centres undefined) |
| > 38.7 | O=C1COCC(=O)N1CCc1c[nH]c2ccccc12 |
| 10.4 (≈ 31.9 µM) | COc1ccc(OC)c(-c2c3c([nH]c(=S)c2C#N)CCCC3)c1 |
| > 45.7 | COc1cc(C2NC(=S)NC3=C2C(=O)CCC3)ccc1O (centres undefined) |
| > 42.7 | Cc1[nH]c2ccccc2c1C(=O)CN1CC(C)CC(C)C1 (centres undefined) |
| 41.8 (≈ 135 µM) | O=C1CN(C(=O)/C=C/c2ccc(Br)cc2)CCN1 |
| 39.5 (≈ 132 µM) | CC1(C)Cc2ccccc2-c2nc(NCCCO)[nH]c(=O)c21 |
| 42.8 (≈ 138 µM) | COc1ccc(Cn2cc(F)c(=O)n(C)c2=O)cc1[N+](=O)[O-] |
| < 0.3 | COc1ccccc1N1CCN(C(=O)c2cc3cc(Cl)ccc3[nH]2)CC1 |
| > 44.8 | Cc1ccc2c(c1)c1c3n2CCN(CCC(=O)O)C3CCC1 (centres undefined) |
| > 41.6 | Cc1ccc(NC(=O)CN(C)C(=S)NC2CC2)cc1 |
| 31.4 (≈ 106 µM) | COc1ccc(CNC2CCCc3ccccc32)c(OC)c1 (centres undefined) |
| 35.7 (≈ 146 µM) | O=C(Nc1ccc2c(c1)OCCO2)c1ccoc1 |
| 1.3 (≈ 4.54 µM) | O=C(Nc1cccc(O)c1)c1cc(-c2cccs2)on1 |
| 36.1 (≈ 145 µM) | COc1cccc(C(C)NC(=O)C2CCCO2)c1 (centres undefined) |
| 6 (≈ 19.3 µM) | Cc1cc(SCc2ccc(Br)cc2)nc(=O)[nH]1 |
| 1.1 (≈ 3.42 µM) | Cc1ccc(C(=O)COC(=O)c2cc(=O)[nH]c3ccccc23)cc1 |
| 50.3 (≈ 146 µM) | CCCN(CCC)C(=O)CC(c1ccccc1)C1CCOC(C)(C)C1 (centres undefined) |

Second part, the compound before the results:

| Structure (SMILES) | solubility kinetic [µg/mL] |
| --- | --- |
| O=C1Nc2ccccc2N=C(c2ccccc2)c2ccccc21 | 0.9 (≈ 3.02 µM) |
| CC(C)OP(=O)(OC(C)C)C(Nc1ccccc1)c1cccnc1 (centres undefined) | 46.5 (≈ 133 µM) |
| COc1cc(OC)c(C=O)c(OC(=O)N(C)C)c1 | 35.8 (≈ 141 µM) |
| COc1ccc(OC)c(Nc2nc(C)nc3c2oc2ccccc23)c1 | < 0.2 |
| Cc1noc(C)c1C(=O)Nc1nccs1 | > 33.5 |
| O=C(Nc1cccc2cccnc12)c1ccccc1Cl | 0.3 (≈ 1.06 µM) |
| Cc1c(-c2ccccc2)nc(N)c(C#N)c1-c1cccnc1 | 5 (≈ 17.5 µM) |
| O=C(NCCCc1nc2ccccc2[nH]1)c1cccs1 | 37.4 (≈ 131 µM) |
| COc1cccc(OC)c1C(=O)Nc1cccc(-c2nc3ccccc3[nH]2)c1 | 11.1 (≈ 29.7 µM) |
| CC(Nc1nc(-c2ccccc2O)nc2ccccc12)c1ccccc1 (centres undefined) | < 0.2 |
| CCNc1ccc(S(=O)(=O)N(C)C)cc1[N+](=O)[O-] | 23.1 (≈ 84.5 µM) |
| CCOc1cc(S(=O)(=O)Nc2ccncc2)ccc1F | > 44.4 |
| O=C1NC(=O)N(Cc2ccccc2F)C1=O | > 33.3 |
| COC(=O)/C=C1\N/C(=N\c2nc(C)cc(C)n2)N(c2ccc(Cl)cc2)C1=O | 57.6 (≈ 149 µM) |
| O=C(OCc1cccc([N+](=O)[O-])c1)c1cccnc1Cl | 5.4 (≈ 18.5 µM) |
| COc1ccc(NC(=O)CCC(=O)N/N=C/c2cccnc2)cc1 | > 49 |
| CC1(C(=O)N2CCOCC2)CCCCC1 | 26.3 (≈ 124 µM) |
| COC(=O)c1sccc1NC(=O)c1ccc(C(C)C)cc1 | < 0.6 |
| O=C1NC(=O)C(c2ccccc2)(c2ccc(O)cc2)N1 (centres undefined) | > 40.2 |
| O=C(COC(=O)c1ccccc1Br)NC(=O)NCc1ccccc1 | 5.1 (≈ 13 µM) |
| CCN1C(=O)N(CC)C2C1N(CO)C(=O)N2CO (centres undefined) | > 38.7 |
| C=CCSC1=NN2CCS(=O)(=O)N=C2S1 | > 39.5 |
